Data: the SangsterLogP compilation

experiment: method code SF-AS, from PMID: 2985094; conditions: pH 7.4

Which logD does the source give for `Cn1c(=O)[nH]c2ncn(C)c2c1=N` here?
Its logD is -2.27.

Which logD does the source give for `COCCn1cnc2c(N)n(C)c(=O)nc21` here?
The logD was -0.96.

For `CCSCCn1cnc2c(=N)n(C)c(=O)[nH]c21`, which logD is on record?
The logD was 0.

For `Cn1c(=O)[nH]c2ncn(CCCC(=O)c3ccc(F)cc3)c2c1=N`, which logD is on record?
Its logD is -1.04.

With `COCCOCn1cnc2c(=N)n(C)c(=O)[nH]c21` as the compound, how does the logD read?
The logD was -1.52.

With `C=COCCn1cnc2[nH]c(=O)n(C)c(=N)c21` as the compound, how does the logD read?
The logD was -0.78.

Which logD does the source give for `CCOCCn1cnc2[nH]c(=O)n(C)c(=N)c21` here?
Its logD is -1.1.

With `CC(=O)OCCn1cnc2[nH]c(=O)n(C)c(=N)c21` as the compound, how does the logD read?
Its logD is -1.2.

Which logD does the source give for `CCOC(=O)CCn1cnc2c(=N)n(C)c(=O)[nH]c21` here?
Its logD is -0.45.

Which logD does the source give for `COCn1cnc2c(=N)n(C)c(=O)[nH]c21` here?
The logD was -1.22.

With `C=CCn1cnc2c(=N)n(C)c(=O)[nH]c21` as the compound, how does the logD read?
Its logD is -0.57.

With `COCn1cnc2[nH]c(=O)n(C)c(=N)c21` as the compound, how does the logD read?
The logD was -2.41.

Which logD does the source give for `COCn1cnc2nc(=O)n(C)c(N)c21` here?
The logD was -2.41.

For `Cn1c(N)c2ncn(Cc3ccccc3)c2nc1=O`, which logD is on record?
The logD was 0.65.

With `Cn1c(N)c2c(ncn2Cc2ccccc2)nc1=O` as the compound, how does the logD read?
The logD was 0.07.

For `Cn1c(=O)[nH]c2c(ncn2CCCC(=O)c2ccc(F)cc2)c1=N`, which logD is on record?
The logD was 0.44.

With `C=COCCn1cnc2c(=N)n(C)c(=O)[nH]c21` as the compound, how does the logD read?
The logD was -0.24.

Which logD does the source give for `CCOCCn1cnc2c(N)n(C)c(=O)nc21` here?
Its logD is -0.4.

For `CCSCCn1cnc2[nH]c(=O)n(C)c(=N)c21`, which logD is on record?
The logD was -0.13.

For `Cn1c(=O)[nH]c2ncn(CCc3ccc(Br)cc3)c2c1=N`, which logD is on record?
Its logD is 1.25.

With `COCCn1cnc2nc(=O)n(C)c(N)c21` as the compound, how does the logD read?
Its logD is -1.49.
